# From patent US20230093099A1, “COMPOUNDS AND METHODS OF TREATING CANCERS” (CULLGEN (SHANGHAI), INC., priority 2019, published 2023)
# System: RS4;11 cells
# Test: Cell viability assay (CellTiter-Glo) in RS4;11 cells
# Type: cell-based
# Settings: Homo sapiens, 72 h; RS4;11 ALL cells treated for three days; read-out: cell viability inhibition IC50
# How it was run: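 Three-day compound treatment of RS4;11 ALL cells (5000/well, 3-fold dilution series of 8 or 12 points), with IC50 from a nonlinear least-squares fit to CellTiter-Glo viability data.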
row,IC50 [nM],SMILES
1,< 100,"O=C1CCC(N2C(=O)c3ccc(NCCCCC(=O)N4CCC(n5cc(-c6cnc7cccc(-c8cc(F)c(CN9CCOCC9)c(F)c8)c7n6)cn5)CC4)cc3C2=O)C(=O)N1 (stereo not drawn) [JA-182, 5-((5-(4-(4-(8-(3,5-difluoro-4-(morpholinomethyl)phenyl)quinoxalin-2-yl)-1H-pyrazol-1-yl)piperidin-1-yl)-5-oxopentyl)amino)-2-(2,6-dioxopiperidin-3-yl)isoindoline-1,3-dione]"

# Same assay, conditions: Homo sapiens, 72 h; RS4;11 cells; cell viability, 3 days, CellTiter-Glo; read-out: IC50
row,IC50 [nM],SMILES
1,> 10000,"CS(=O)(=O)c1ccc(-c2cccc3nc(Nc4ccc(N5CCN(CC(=O)NCCOCCOCCOCCOCCNc6cccc7c6C(=O)N(C6CCC(=O)NC6=O)C7=O)CC5)cc4)nn23)cc1 (stereo not drawn) [JA-114, N-(14-((2-(2,6-Dioxopiperidin-3-yl)-1,3-dioxoisoindolin-4-yl)amino)-3,6,9,12-tetraoxatetradecyl)-2-(4-(4-((5-(4-(methylsulfonyl)phenyl)-[1,2,4]triazolo[1,5-a]pyridin-2-yl)amino)phenyl)piperazin-1-yl)acetamide]"
2,> 10000,"Cc1ncsc1-c1ccc(CNC(=O)[C@@H]2C[C@@H](O)CN2C(=O)[C@@H](NC(=O)CCC(=O)N2CCC(n3cc(-c4cnc5cccc(-c6cc(F)c(CN7CCOCC7)c(F)c6)c5n4)cn3)CC2)C(C)(C)C)cc1 [JA-060, (2S,4R)-1-[(2S)-2-[[4-[4-[4-[8-[3,5-Difluoro-4-(morpholinomethyl)phenyl]quinoxalin-2-yl]pyrazol-1-yl]-1-piperidyl]-4-oxo-butanoyl]amino]-3,3-dimethyl-butanoyl]-4-hydroxy-N-[[4-(4-methylthiazol-5-yl)phenyl]methyl]pyrrolidine-2-carboxamide]"
3,676,"CS(=O)(=O)c1ccc(-c2cccc3nc(Nc4ccc(N5CCN(CC(=O)NCCCCNc6ccc7c(c6)C(=O)N(C6CCC(=O)NC6=O)C7=O)CC5)cc4)nn23)cc1 (stereo not drawn) [JA-205, N-(4-((2-(2,6-Dioxopiperidin-3-yl)-1,3-dioxoisoindolin-5-yl)amino)butyl)-2-(4-(4-((5-(4-(methylsulfonyl)phenyl)-[1,2,4]triazolo[1,5-a]pyridin-2-yl)amino)phenyl)piperazin-1-yl)acetamide]"
4,647,"O=C1CCC(N2C(=O)c3ccc(C#CCCCCC(=O)N4CCC(n5cc(-c6cnc7cccc(-c8cc(F)c(CN9CCOCC9)c(F)c8)c7n6)cn5)CC4)cc3C2=O)C(=O)N1 (stereo not drawn) [JA-258, 5-(7-(4-(4-(8-(3,5-Difluoro-4-(morpholinomethyl)phenyl)quinoxalin-2-yl)-1H-pyrazol-1-yl)piperidin-1-yl)-7-oxohept-1-yn-1-yl)-2-(2,6-dioxopiperidin-3-yl)isoindoline-1,3-dione]"
5,> 10000,"CS(=O)(=O)c1ccc(-c2cccc3nc(Nc4ccc(N5CCN(CC(=O)NCCCCCCNc6cccc7c6C(=O)N(C6CCC(=O)NC6=O)C7=O)CC5)cc4)nn23)cc1 (stereo not drawn) [JA-112, N-(6-((2-(2,6-Dioxopiperidin-3-yl)-1,3-dioxoisoindolin-4-yl)amino)hexyl)-2-(4-(4-((5-(4-(methylsulfonyl)phenyl)-[1,2,4]triazolo[1,5-a]pyridin-2-yl)amino)phenyl)piperazin-1-yl)acetamide]"
6,510,"O=C1CCC(N2C(=O)c3cccc(NCCCC(=O)N4CCC(n5cc(-c6cnc7cccc(-c8cc(F)c(CN9CCOCC9)c(F)c8)c7n6)cn5)CC4)c3C2=O)C(=O)N1 (stereo not drawn) [JA-005, 4-[[4-[4-[4-[8-[3,5-Difluoro-4-(morpholinomethyl)phenyl]quinoxalin-2-yl]pyrazol-1-yl]-1-piperidyl]-4-oxo-butyl]amino]-2-(2,6-dioxo-3-piperidyl)isoindoline-1,3-dione]"
7,> 10000,"Cc1cnc(Nc2ccc(N3CCN(C(=O)CCCCCNc4ccc5c(c4)C(=O)N(C4CCC(=O)NC4=O)C5=O)CC3)cc2)nc1Nc1cccc(S(=O)(=O)NC(C)(C)C)c1 (stereo not drawn) [JA-229, N-(tert-butyl)-3-((2-((4-(4-(6-((2-(2,6-dioxopiperidin-3-yl)-1,3-dioxoisoindolin-5-yl)amino)hexanoyl)piperazin-1-yl)phenyl)amino)-5-methylpyrimidin-4-yl)amino)benzenesulfonamide]"
8,> 10000,"Cc1cnc(Nc2ccc(N3CCN(CC(=O)NCCCCCCCCCCC(=O)N[C@H](C(=O)N4C[C@H](O)C[C@H]4C(=O)NCc4ccc(-c5scnc5C)cc4)C(C)(C)C)CC3)cc2)nc1Nc1cccc(S(=O)(=O)NC(C)(C)C)c1 [JA-106, (2S,4R)-1-((S)-2-(11-(2-(4-(4-((4-((3-(N-(tert-Butyl)sulfamoyl)phenyl)amino)-5-methylpyrimidin-2-yl)amino)phenyl)piperazin-1-yl)acetamido)undecanamido)-3,3-dimethylbutanoyl)-4-hydroxy-N-(4-(4-methylthiazol-5-yl)benzyl)pyrrolidine-2-carboxamide]"
9,1270,"O=C1CCC(N2C(=O)c3cccc(NCCOCCOCCOCCC(=O)N4CCC(n5cc(-c6cnc7cccc(-c8cc(F)c(CN9CCOCC9)c(F)c8)c7n6)cn5)CC4)c3C2=O)C(=O)N1 (stereo not drawn) [JA-049, 4-[2-[2-[2-[3-[4-[4-[8-[3,5-Difluoro-4-(morpholinomethyl)phenyl]quinoxalin-2-yl]pyrazol-1-yl]-1-piperidyl]-3-oxo-propoxy]ethoxy]ethoxy]ethylamino]-2-(2,6-dioxo-3-piperidyl)isoindoline-1,3-dione]"
10,13.8,"O=C1CCC(N2C(=O)c3ccc(NCCCCC(=O)N4CCC(n5cc(-c6cnc7cccc(-c8cc(F)c(CN9CCOCC9)c(F)c8)c7n6)cn5)CC4)cc3C2=O)C(=O)N1 (stereo not drawn) [JA-182, 5-((5-(4-(4-(8-(3,5-difluoro-4-(morpholinomethyl)phenyl)quinoxalin-2-yl)-1H-pyrazol-1-yl)piperidin-1-yl)-5-oxopentyl)amino)-2-(2,6-dioxopiperidin-3-yl)isoindoline-1,3-dione]"
11,1690,"O=C1CCC(N2C(=O)c3ccc(NCCOCCC(=O)N4CCC(n5cc(-c6cnc7cccc(-c8cc(F)c(CN9CCOCC9)c(F)c8)c7n6)cn5)CC4)cc3C2=O)C(=O)N1 (stereo not drawn) [JA-181, 5-((2-(3-(4-(4-(8-(3,5-Difluoro-4-(morpholinomethyl)phenyl)quinoxalin-2-yl)-1H-pyrazol-1-yl)piperidin-1-yl)-3-oxopropoxy)ethyl)amino)-2-(2,6-dioxopiperidin-3-yl)isoindoline-1,3-dione]"
12,176,"CS(=O)(=O)c1ccc(-c2cccc3nc(Nc4ccc(N5CCN(C(=O)CCCCCNc6ccc7c(c6)CN(C6CCC(=O)NC6=O)C7=O)CC5)cc4)nn23)cc1 (stereo not drawn) [JA-275, 3-(5-((6-(4-(4-((5-(4-(Methylsulfonyl)phenyl)-[1,2,4]triazolo[1,5-a]pyridin-2-yl)amino)phenyl)piperazin-1-yl)-6-oxohexyl)amino)-1-oxoisoindolin-2-yl)piperidine-2,6-dione]"
13,> 10000,"Cc1ncsc1-c1ccc(CNC(=O)[C@@H]2C[C@@H](O)CN2C(=O)[C@@H](NC(=O)CCOCCOCCOCCOCCOCCNC(=O)CN2CCC(n3cc(-c4cnc5cccc(-c6cc(F)c(CN7CCOCC7)c(F)c6)c5n4)cn3)CC2)C(C)(C)C)cc1 [JA-159, (2S,4R)-1-((S)-23-(tert-Butyl)-1-(4-(4-(8-(3,5-difluoro-4-(morpholinomethyl)phenyl)quinoxalin-2-yl)-1H-pyrazol-1-yl)piperidin-1-yl)-2,21-dioxo-6,9,12,15,18-pentaoxa-3,22-diazatetracosan-24-oyl)-4-hydroxy-N-(4-(4-methylthiazol-5-yl)benzyl)pyrrolidine-2-carboxamide]"
14,> 10000,"Cc1ncsc1-c1ccc(CNC(=O)[C@@H]2C[C@@H](O)CN2C(=O)[C@@H](NC(=O)CCCCCCCCCNC(=O)CN2CCN(c3ccc(Nc4nc5cccc(-c6ccc(S(C)(=O)=O)cc6)n5n4)cc3)CC2)C(C)(C)C)cc1 [JA-120, (2S,4R)-1-((S)-3,3-Dimethyl-2-(10-(2-(4-(4-((5-(4-(methylsulfonyl)phenyl)-[1,2,4]triazolo[1,5-a]pyridin-2-yl)amino)phenyl)piperazin-1-yl)acetamido)decanamido)butanoyl)-4-hydroxy-N-(4-(4-methylthiazol-5-yl)benzyl)pyrrolidine-2-carboxamide]"
